The record followed here is ChEMBL document CHEMBL1201862, “PubChem BioAssay data set” (2004).

Holding throughout (test): NCI tumour cell line growth inhibition, 48 h
Test [1] has as its system OVCAR-3.
Test [2] relates to ACHN.
For test [3], the system named is KM12.
For test [4], the system named is SF-295.
In test [5] the test system is NCI-H226.
Test [6] has as its system BT-549.
The test system of test [7] is HCC 2998.
Test [8] has as its system NCI-H460.
Test [9] concerns SW-620.
For test [10], the system named is SR.
Test [11] deals with T47D.
The test system of test [12] is DU-145.
Test [13] has as its system A549.
Test [14] concerns NCI-H522.
In test [15] the test system is SF-268.
In test [16] the test system is CCRF-CEM.
For test [17], the system named is NCI-H23.
Test [18] concerns HT-29.
The subject of test [19] is SK-OV-3.
The test system of test [20] is TK-10.

SMILES strings stand for the structures.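 Growth conditions: 96-well plates. Treatment: test compound, 48 hours, 5 concentrations. Analysis: linear interpolation between bracketing concentrations; unreached endpoints set to highest concentration. GI50: concentration for 50% inhibition of growth.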 Activity calls are given as the source filed them. Cut-off read from the data, not from the text of the source: active = GI50 up to about 1.1 µM and inactive = higher. Residues, ends and D or L forms follow the SMILES beside them. *: point of attachment. Boc = CC(C)(C)OC(=O)*

In the case of `CC1(C)Oc2ccc3ccc(=O)oc3c2C(O)C1O` (configuration not stated), the GI50 in [1] was 37.2 µM (inactive); in [2] it was 44.6 µM (inactive); in test [3], 31.9 µM (inactive); in [4], 36.1 µM (inactive); in test [5] it was 48.3 µM (inactive); in test [6], 22.5 µM (inactive). Besides, the GI50 in test [7] is > 100 µM (inactive); in [8], 40 µM (inactive); in test [9], 61.1 µM (inactive); in test [10] it was 59.4 µM (inactive); in test [11], 35.3 µM (inactive); in [12], 55.8 µM (inactive). For the same molecule, the GI50 is 32.2 µM (inactive) in [13]; 33.7 µM (inactive) in [14]; 40.6 µM (inactive) in test [15]; 31.7 µM (inactive) in test [16]; 44.2 µM (inactive) in [17]; 28.1 µM (inactive) in test [18].

For `OCC1OC(O)C(/N=C\c2ccc3c(c2)OCO3)C(O)C1O` (configuration not stated), the GI50 in test [1], in test [2], in test [19], in [3], in [4] and in test [5] was > 100 µM (inactive) throughout. The GI50 in test [6], in test [7], in test [8], in test [9], in test [20] and in test [10] was > 100 µM (inactive) each time. In addition, the GI50 in [11], in test [12], in [13], in [14], in test [15] and in test [17] was > 100 µM (inactive) throughout. The GI50 in test [18] was > 100 µM (inactive).

As for `N/C(=N\OC(=O)NC(Cl)=C(Cl)Cl)c1cc(C(F)(F)F)cc(C(F)(F)F)c1`, the GI50 in [1] is 14.8 µM (inactive); in test [2], 14 µM (inactive); in [19], 28.4 µM (inactive); in test [3], 15.8 µM (inactive); in test [4], 17.5 µM (inactive); in test [5], 22.1 µM (inactive). The GI50 in test [6] was 21.8 µM (inactive); in test [7], 12.5 µM (inactive); in [8], 18.8 µM (inactive); in [9], 18.9 µM (inactive); in test [20] it was 16.5 µM (inactive); in test [10], 10.7 µM (inactive). Moreover, the GI50 was 6.21 µM (inactive) in [11]; 13.2 µM (inactive) in [12]; 15.3 µM (inactive) in test [13]; 18.7 µM (inactive) in [15]; 4.65 µM (inactive) in [16]; 34.9 µM (inactive) in test [17]. Further, in test [18], the GI50 was 16.9 µM (inactive).

As for `CC(=O)OC1=C(c2ccccc2)S(=O)(=O)c2ccccc21`, the GI50 in test [1], in [2], in test [3], in test [4], in test [5] and in test [6] was > 100 µM (inactive) in each case. Also, the GI50 in [7], in test [8], in test [9], in test [20], in test [10] and in test [11] was > 100 µM (inactive) in each case. Also, the GI50 in test [12] is > 100 µM (inactive); in test [13] it was > 100 µM (inactive); in [14], > 100 µM (inactive); in test [15], > 100 µM (inactive); in [16], 96.4 µM (inactive); in test [17], > 100 µM (inactive). Also, in test [18], the GI50 is > 100 µM (inactive).

For `NC(C(F)(F)F)(C(F)(F)F)P(=O)(c1ccccc1)c1ccccc1`, the GI50 in test [1], in test [2], in test [19], in [3], in test [4] and in test [5] was > 100 µM (inactive) throughout. Further, the GI50 in test [6], in [7], in [8], in test [9], in [20] and in [10] was > 100 µM (inactive) throughout. For the same molecule, the GI50 in test [11], in test [12], in [13], in test [15], in [16] and in [17] was > 100 µM (inactive) each time. Further, the GI50 in [18] is > 100 µM (inactive).

For the molecule `Cc1oc2c(cc(O)c3cc(O)ccc32)c2cccc1-2`, the GI50 in [1] was > 100 µM (inactive); in test [2] it was > 100 µM (inactive); in [19] it was > 100 µM (inactive); in [3] it was > 100 µM (inactive); in test [4] it was > 100 µM (inactive); in test [6] it was 0.697 µM (active). In addition, the GI50 in [7] was > 100 µM (inactive); in [8], > 100 µM (inactive); in [9] it was > 100 µM (inactive); in test [20], > 100 µM (inactive); in test [10], 37 µM (inactive); in test [11], 42.1 µM (inactive). The GI50 is > 100 µM (inactive) in [12]; > 100 µM (inactive) in [13]; 35.2 µM (inactive) in test [14]; > 100 µM (inactive) in test [15]; 43.5 µM (inactive) in test [16]; > 100 µM (inactive) in test [17]. In test [18], the GI50 was > 100 µM (inactive).

For the molecule `Cc1ccc(C(=O)N/N=C(\N=N\c2cccc(Cl)c2)c2ccc(N(CCC#N)CCC#N)cc2C)cc1`, the GI50 in [1] is 93.3 µM (inactive); in test [2], > 100 µM (inactive); in test [19], > 100 µM (inactive); in [3], > 100 µM (inactive); in [4], > 100 µM (inactive); in [5] it was > 100 µM (inactive). Besides, the GI50 in [6], in test [7], in test [8], in test [9], in [20] and in [10] was > 100 µM (inactive) each time. Besides, the GI50 was 69 µM (inactive) in test [11]; > 100 µM (inactive) in test [12]; > 100 µM (inactive) in [13]; > 100 µM (inactive) in test [14]; 97.1 µM (inactive) in [16]; > 100 µM (inactive) in test [17]. Further, the GI50 in test [18] is 90.2 µM (inactive).

In the case of `COc1cc2c(cc1OC)C(=O)/C(=C/c1ccc(Cl)cc1)CC2`, the GI50 in test [1], in test [2], in [19], in test [3], in [4] and in [5] was > 10 µM (inactive) each time. Further, the GI50 in test [6], in test [7], in test [8], in test [9], in test [20] and in [10] was > 10 µM (inactive) throughout. In addition, the GI50 in test [11], in test [12], in test [13], in [15], in test [16] and in [17] was > 10 µM (inactive) each time. In addition, the GI50 in [18] was > 10 µM (inactive).

With `O=C(COc1ccc(OCC(=O)N2C(=O)CN(c3ccccc3)C2=S)cc1)N1C(=O)CN(c2ccccc2)C1=S`, the GI50 in test [1] is 49.3 µM (inactive); in [2] it was > 53.3 µM (inactive); in test [19] it was > 54.3 µM (inactive); in [3], > 51.5 µM (inactive); in test [4], > 53 µM (inactive); in test [5] it was > 100 µM (inactive). Further, the GI50 in test [6] is > 61.4 µM (inactive); in [7] it was > 58.5 µM (inactive); in test [8], > 57.7 µM (inactive); in test [9] it was > 100 µM (inactive); in test [20], > 54.7 µM (inactive); in [10] it was > 25 µM (inactive). Further, the GI50 in test [11] is > 58.3 µM (inactive); in test [12], > 61 µM (inactive); in test [13], > 56.1 µM (inactive); in [14], > 61.2 µM (inactive); in [15] it was > 59.4 µM (inactive); in test [17], > 56.9 µM (inactive). Moreover, the GI50 in test [18] was > 56.9 µM (inactive).

For `COC(=O)C(Cc1c[nH]c2ccccc12)NC(=O)C(Cc1c[nH]c2ccccc12)NC(=O)C(Cc1c[nH]c2ccccc12)NC(=O)C(Cc1c[nH]c2ccccc12)NC(=O)C(Cc1c[nH]c2ccccc12)NC(=O)C(Cc1c[nH]c2ccccc12)NC(=O)OC(C)(C)C` (configuration not stated) (Boc-WWWWWW-OMe; configuration not given here), the GI50 in test [1] was > 100 µM (inactive); in test [2], > 100 µM (inactive); in test [5], 64 µM (inactive); in test [6], 44 µM (inactive); in [7] it was > 100 µM (inactive); in test [8], > 100 µM (inactive). In addition, the GI50 in test [9] is > 100 µM (inactive); in test [20], 31.2 µM (inactive); in test [10], 82.4 µM (inactive); in [11], 22.2 µM (inactive); in [12], 32.9 µM (inactive); in [13], 31.7 µM (inactive). Also, the GI50 in test [14] is 28.1 µM (inactive); in test [15], 50.4 µM (inactive); in [16], > 100 µM (inactive); in test [17], 28.5 µM (inactive); in [18] it was > 100 µM (inactive).
